Marks after values point to notes of the source that are not given here.

The test system of test [1] is Malassezia furfur (CBS 7982). The test is described as follows: In vitro evaluation of antifungal potency (MIC). It counts as cell-based. The protocol:
Malassezia furfur (CBS 7982) is grown for approximately 24 hours in a 250 ml vent cap polycarbonate Erlenmeyer flask containing approximately 100 ml of mDixon medium and 5 ml of a fully grown M. furfur culture prepared using the same conditions as described. The cells are diluted by mixing 2.5 ml of the 24 hour-old culture per 50 ml of mDixon medium. A Versette robot (ThermoFisher Scientific) is used to transfer 292.5 μl of the dilute cells into each well of a Beckman 267007 polypropylene round bottom deep well plate. All compounds are sourced from Sigma Aldrich (St. Louis, Mo.) and prepared as 10 mg/ml in DMSO. A semipermeable aeraseal membrane is applied to the plate which is then be covered with water-soaked cotton batting. The samples are be shaken at 31° C. on a Heidolph Titramax 100 shaker at 1500 rpm for approximately 72 hours. The plates are shaken at 1250 rpm on an Eppendorf MixMate shaker to disperse the cells before transferring 200 μl to a Corning 3596 polystyrene plate. The samples are shaken again at 950 rpm on a MixMate shaker before the absorbance at 600 nm is read using a Molecular Devices SpectraMax plate reader.

Test [2] has as its system human scalp (dandruff). The test is described as follows: In vivo scalp health study: adherent scalp flaking score (ASFS). On the procedure: Subjects are enrolled in a double-blind, randomized study for all test groups and have Baseline and Week 3 measurements of scalp health taken for flaking, itch and scalp health endpoints. Subjects take home a test product(s) and are instructed on use of test products throughout the study. Test products are solubilized in a hydroalcoholic leave-on formulation. Azoxystrobin raw material is sourced from AK Scientific Inc. (Union City, Calif.) as >97% pure. Azoxystrobin scalp treatment is prepared from a slurry of azoxystrobin in ethanol that is formulated to 0.1% (w/v) in a base chassis of 50% ethanol, 0.35% Ultrez 21 (rheology modifier), 0.05% neutrol TE and water (q.s.). Vehicle scalp treatment is prepared similarly without the addition of azoxystrobin raw material. Subjects apply either azoxystrobin or vehicle scalp treatments daily for 3 weeks. Grading of the scalp is performed by qualified expert graders for adherent scalp flaking scores (ASFS) as described in published methods. Detailed methods can be found in Journal of Dermatological Treatment 2014, 25, 232-236, incorporated by reference herein. Briefly, flaking severity of a subject is assessed by examination of the scalp which is illuminated by lighting that mimics daylight conditions. The scalp is divided into eight sections and each section is assessed for the presence of dandruff flakes that are adhering to the scalp skin using a 0 to 10 (increment of 2 units) scale. Loose flakes in the hair are not considered in the grading. The final, or total, ASFS is the sum of the grades for all eight scalp sections, which results in a scale ranging from 0 to 80 units. The change in flaking across time is reported as change from baseline at the 3-week time point.

The next test has as its system S100A12. The test is described as follows: Scalp tape strip S100A12 protein. The format is in vivo, human. The protocol:
Subjects are enrolled in a double-blind, randomized study for all test groups and have Baseline and Week 3 measurements of scalp health taken for flaking, itch and scalp health endpoints. Subjects take home a test product(s) and are instructed on use of test products throughout the study. Test products are solubilized in a hydroalcoholic leave-on formulation. Azoxystrobin raw material is sourced from AK Scientific Inc. (Union City, Calif.) as >97% pure. Azoxystrobin scalp treatment is prepared from a slurry of azoxystrobin in ethanol that is formulated to 0.1% (w/v) in a base chassis of 50% ethanol, 0.35% Ultrez 21 (rheology modifier), 0.05% neutrol TE and water (q.s.). […] Biomarkers of scalp health, including biomarkers of inflammation, itch, oxidative stress and barrier integrity are assessed by non-invasive tape strip sampling of the scalp surface to determine therapeutic resolution. All biomarkers are analyzed from D-Squame® scalp tape samples that are collected from the scalp of subjects before and after scalp treatment with either azoxystrobin or vehicle (Baseline, and Week 3 respectively). These are extracted and analyzed according to published methods (International Journal of Dermatology 2011, 50, 102-113, incorporated by reference herein). […] S100A12 protein is analyzed to determine the impact of scalp treatment on active inflammatory disease. […]

The test system of test [3] is human scalp (dandruff). The test is described as follows: Self-assessment questionnaire for itch perception. It counts as in vivo. On the procedure:
Subjects are enrolled in a double-blind, randomized study for all test groups and have Baseline and Week 3 measurements of scalp health taken for flaking, itch and scalp health endpoints. Subjects take home a test product(s) and are instructed on use of test products throughout the study. Test products are solubilized in a hydroalcoholic leave-on formulation. Azoxystrobin raw material is sourced from AK Scientific Inc. (Union City, Calif.) as >97% pure. Azoxystrobin scalp treatment is prepared from a slurry of azoxystrobin in ethanol that is formulated to 0.1% (w/v) in a base chassis of 50% ethanol, 0.35% Ultrez 21 (rheology modifier), 0.05% neutrol TE and water (q.s.). Vehicle scalp treatment is prepared similarly without the addition of azoxystrobin raw material. Subjects apply either azoxystrobin or vehicle scalp treatments daily for 3 weeks. Self-assessment questionnaires for itch perception are administered to each subject at Baseline and Week 3. Itch perception is quantified by each subject as severity of symptoms over the past 24 hours on a 7 point scale: 0=none, 1=slight, 2=slight to moderate, 3=moderate, 4=moderate to severe; 5=severe; 6=very severe.

With `CO/C=C(/C(=O)OC)c1ccccc1Oc1cc(Oc2ccccc2C#N)ncn1` [Azoxystrobin], the “MIC value, Malassezia furfur” value in test [1] (M. furfur CBS 7982, mDixon medium, 31° C., approximately 72 hours, absorbance at 600 nm) is on record as 0.39-0.49 ppm. In addition, in test [1] (Malassezia furfur MIC ratio), the “times more potent than pyraclostrobin (MIC)” value was found to be 4 times and the “times more potent than zinc pyrithione (MIC)” value is on record as 8 times. The “Flaking Results (ASFS Change from Baseline)” value in the test with human scalp (dandruff) [2] (0.1% (w/v) hydroalcoholic leave-on, daily, 3 weeks, dandruff subjects, scale 0 to 80) is listed as −13.88. The reduction in flaking with human scalp (dandruff) [2] (after 3 weeks of treatment) stood at 45%. The “ASFS reduction more than the placebo” value with human scalp (dandruff) [2] (after 3 weeks of treatment, p=0.002) stood at 4.7 units. Further, in the test with S100A12 (0.1% leave-on daily, Week 3, scalp tape strips), the “S100A12 Results % Change from Baseline” value was −71.2* %. In addition, the “reduction of S100A12 levels” value in the test with S100A12 (compared to a placebo control) was 71%. For the same compound, the “Mean Itch Severity at Week 3” value with human scalp (dandruff) [3] (7 point scale 0-6, Common Baseline Severity = 3.1, 0.1% leave-on daily) is 1.5*. The “reduction in itch perception” value with human scalp (dandruff) [3] (compared to a placebo control) came out at 48%.
